Data reported in patent US5607544A, “Process and agent for the oxidative bleaching of wood pulp and for deinking waste paper” (BK Ladenburg GmbH fur Chemische Erzeugnisse, priority 1994, dated 1997).
One block for each compound: values may come before it.

How the values were obtained:
[1] = system: catalase; experiment: Catalase test: pressure increase after hydrogen peroxide addition to deinking process water of a paper factory; format: biochemical; details: 0.1% hydrogen peroxide
Description: (§1) The catalase test depends upon the measurement of the increase of the pressure in an airtight-closed vessel after the introduction of 0.1% hydrogen peroxide. With increasing concentration of catalase in a sample, the pressure to be measured increases correspondingly. The pressure is given as an electric signal in relative units (mV). The pressure increase is measured after 10 minutes.

[2] = target: T1, enzyme catalase (No. C10 Sigma catalogue) (Bos taurus, UniProt P00432); experiment: Action on the pure enzyme catalase, absorption decrease at 240 nm; format: biochemical
T1 construct: purchased Sigma C10
T1 sequence (P00432 2-527 limits assumed): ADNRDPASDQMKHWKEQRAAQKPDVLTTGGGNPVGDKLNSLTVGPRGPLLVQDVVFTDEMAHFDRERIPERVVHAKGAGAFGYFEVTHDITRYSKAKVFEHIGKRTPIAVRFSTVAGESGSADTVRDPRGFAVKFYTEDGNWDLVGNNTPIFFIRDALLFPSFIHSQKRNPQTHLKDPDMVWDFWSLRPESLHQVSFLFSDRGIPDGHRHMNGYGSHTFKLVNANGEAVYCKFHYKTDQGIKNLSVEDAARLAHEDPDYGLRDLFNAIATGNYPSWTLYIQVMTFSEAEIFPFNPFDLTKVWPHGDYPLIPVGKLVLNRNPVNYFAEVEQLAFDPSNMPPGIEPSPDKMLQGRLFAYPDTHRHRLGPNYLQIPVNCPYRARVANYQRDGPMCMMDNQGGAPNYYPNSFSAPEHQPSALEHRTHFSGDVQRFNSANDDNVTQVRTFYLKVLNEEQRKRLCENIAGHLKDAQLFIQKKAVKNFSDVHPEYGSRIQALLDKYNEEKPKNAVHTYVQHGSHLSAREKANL
Description: phosphate buffer 0.05M, pH 7.0 (K2 HPO4 : 8.7 g/l; KH2 PO4 : 6.8 g/l)
enzyme catalase (No. C10 Sigma catalogue)
substrate hydrogen peroxide (30%).
Dissolve catalase in 0.05M phosphate buffer.
Concentration: 50 sigma units per ml of buffer.
Dissolve 0.1 ml 30% hydrogen peroxide in 50 ml of 0.05M phosphate buffer (control) or in 50 ml phosphate buffer which contains the stabiliser (substrate). Measure the absorption at 240 nm. The result must lie between 0.550 and 0.520. Possibly dilute the solution or add more hydrogen peroxide thereto.
2.9 ml of solution B are placed in a quartz cuvette and subsequently mixed with 0.1 ml of solution A. The absorption at 240 nm should, at the beginning of the measurement, amount to approximately 0.450. The time needed for the decrease of the absorption at 240 nm from 0.450 to 0.400 is determined. This time corresponds to the conversion of 3.45 μmol hydrogen peroxide in 3 ml of sample volume.
(sigma units total)=3.45: time (minutes calculating back to active sigma units 1 sigma unit reacts 1.0 μmol hydrogen peroxide per minute (at pH 7.0; 25° C.).

[3] = Flotation experiment in tap water without waterglass (stability of hydrogen peroxide); details: no waterglass; for residual peroxide: 0 sample 15%
Description: (§2) Into the pulper (2800 r.p.m.) are introduced 50 g of atro waste paper and the chemical solution is subsequently introduced. The pulping time is 10 minutes. After ending of the brushing out time, the paper slurry is shaken out into a glass beaker, stirred up with a commercially available ultrasonic disperser and the pH value determined.
(§3) The remaining fibre material is placed for 110 minutes in a waterbath with a temperature of 50° C. After the residence time, it is dispersed with a disperser for 1 minute at 10,000 r.p.m. The paper slurry is emptied into a flotation cell which is filled with water with a temperature of 50° C. There is thereby adjusted a material density of 0.8% (pH value 8.5). Air is introduced into the cell at a rate of 60 liters/hour and the speed of stirring is 1000 r.p.m. The flotation time is 10 minutes, foam being skimmed off manually. After the flotation is ended, acidification is carried out with sulphuric acid to pH 5 and sheets are formed.
In the case of this experiment, working was analogous to Example 3 but tap water was used instead of process water. […] At the same time, in the case of this experiment, the addition of waterglass as stabiliser is omitted.

[4] = Residual peroxide content by iodometric titration in deinking process water samples
Text: The measurement of the residual peroxide content took place by iodometric titration.
The initial peroxide content corresponds to 100% (=0.1% hydrogen peroxide (100%)).

[5] = system: catalase; experiment: Pressure increase after hydrogen peroxide addition to process water 3 (rate of decomposition of peroxide); format: biochemical; details: 400 ppm referred to process water volume, 0.1% hydrogen peroxide, after 10 minutes, ambient temperature, 0 sample 9.8
Description: as §1
As sample, there was used process water 3 and worked up analogously to Example 1. After the addition of 0.1% hydrogen peroxide (referred to 100% hydrogen peroxide), there was measured the pressure increase in relative pressure units (in mV) after 10 minutes. The measurement took place at ambient temperature.

[6] = Laboratory deinking experiment with process water 1 (whiteness, flotate, ash, residual peroxide); details: 0 sample 15.7%
Description: Into 1 liter of water of 30° dH (tap water) are introduced:
as §2
The pH value is 9.5±0.2. 100 ml are taken from the brushed out suspension and a sheet formed (degree of whiteness and brightness before the flotation).
as §3
The brightness and degree of whiteness are measured on the front and rear side and the average value determined.
R 457: reflection factor at 457 nm wavelength
Y/C: standard type of light C/1931
Process water 1 was used. The statements of percentage refer to the commercial product and the residual peroxide was determined by a titration method.

[7] = 400 ppm active substance, pressure increase after 10 minutes, comparison sample without additive 9.8

Structure (SMILES): N#CC(Br)(Br)C(N)=O [DBNPA, 2,2-dibromo-3-nitrilopropionamide]
- pressure in relative units [1, 7]: > 9.0 mV

Structure (SMILES): N#CSCSC#N [MBT, methylene bisthiocyanate]
- pressure in relative units [1, 7]: 6.2 mV

Structure (SMILES): CNC(=S)S [MDTCMA, monomethylammonium monomethyl dithiocarbamate]
- pressure in relative units [1, 7]: > 9.0 mV

Structure (SMILES): OCl [Sodium hypochlorite]
- action on the pure enzyme catalase (in words) ([2]; solution B (hydrogen peroxide in phosphate buffer)): reacts in solution B with hydrogen peroxide with decomposition before catalase can be added

Structure (SMILES): OC[P+](CO)(CO)CO [THPS, tetrakishydroxymethylphosphonium sulphate]
- pressure in relative units [1, 7]: > 9.0 mV

Structure (SMILES): O=CCCCC=O [glutaraldehyde]
- inhibition at 0.5 ppm ([2]; 0.5 ppm, pH 7.0): 6%
- inhibition at 2.5 ppm ([2]; 2.5 ppm, pH 7.0): 9%
- inhibition at 5 ppm ([2]; 5 ppm, pH 7.0): 11%

Structure (SMILES): CNC(=S)S [metamsodium, sodium monomethyldithiocarbamate]
- pressure in relative units [1, 7]: 5.0 mV

- inhibition at 0.2 ppm ([2]; 0.2 ppm, pH 7.0): 0%
- inhibition at 1 ppm ([2]; 1 ppm, pH 7.0): 16%
- inhibition at 2 ppm ([2]; 2 ppm, pH 7.0): 63%
- pressure in relative units ([1]; 10 ppm active substance, after 10 minutes): 4.2 mV
- pressure in relative units ([1]; 100 ppm active substance, after 10 minutes): 0.5 mV
- pressure in relative units [1, 7]: 0.2 mV
- pressure increase in relative pressure units [5]: 0.2 mV
Structure (SMILES): O=C(C(Cl)=NO)c1ccc(O)cc1 [paraclox, 2-oxo-2-(4-hydroxyphenyl)-acethydroximic acid chloride]
- stabilising action on the peroxide (in words) [3]: very good stabilising action on the peroxide
- residual peroxide ([3]; paraclox 0.02%): 34.0%
- residual peroxide ([3]; paraclox 0.04%): 41.0%
- residual peroxide ([3]; paraclox 0.08%): 52.4%
- residual peroxide content ([4]; Process water 1 (clear filtrate), 10 ppm, 0 min.): 100%
- residual peroxide content ([4]; Process water 1 (clear filtrate), 10 ppm, 30 min.): 55.4%
- residual peroxide content ([4]; Process water 1 (clear filtrate), 10 ppm, 60 min.): 43.1%
- residual peroxide content ([4]; Process water 1 (clear filtrate), 10 ppm, 90 min.): 33.8%
- residual peroxide content ([4]; Process water 1 (clear filtrate), 10 ppm, 120 min.): 26.9%
- residual peroxide content ([4]; Process water 1 (clear filtrate), 100 ppm, 0 min.): 100%
- residual peroxide content ([4]; Process water 1 (clear filtrate), 100 ppm, 30 min.): 95.4%
- residual peroxide content ([4]; Process water 1 (clear filtrate), 100 ppm, 60 min.): 87.7%
- residual peroxide content ([4]; Process water 1 (clear filtrate), 100 ppm, 90 min.): 87.7%
- residual peroxide content ([4]; Process water 1 (clear filtrate), 100 ppm, 120 min.): 86.1%
- residual peroxide content ([4]; Process water 2 (drum 1), 2 ppm, 0 min.): 100%
- residual peroxide content ([4]; Process water 2 (drum 1), 2 ppm, 30 min.): 3.6%
- residual peroxide content ([4]; Process water 2 (drum 1), 2 ppm, 60 min.): 0%
- residual peroxide content ([4]; Process water 2 (drum 1), 2 ppm, 90 min.): 0%
- residual peroxide content ([4]; Process water 2 (drum 1), 2 ppm, 120 min.): 0%
- residual peroxide content ([4]; Process water 2 (drum 1), 20 ppm, 0 min.): 100%
- residual peroxide content ([4]; Process water 2 (drum 1), 20 ppm, 30 min.): 62.1%
- residual peroxide content ([4]; Process water 2 (drum 1), 20 ppm, 60 min.): 56.8%
- residual peroxide content ([4]; Process water 2 (drum 1), 20 ppm, 90 min.): 50.8%
- residual peroxide content ([4]; Process water 2 (drum 1), 20 ppm, 120 min.): 47%
- residual peroxide ([6]; paraclox 0.02%): 21.4%
- residual peroxide ([6]; paraclox 0.04%): 28.5%
- residual peroxide ([6]; paraclox 0.08%): 49.7%
